Results taken from US20200055817A1 (AbbVie Deutschland GmbH & Co. KG, priority 2016, published 2020).
Counter-ions that a name gives are not always drawn.

What was measured:
Type in all cases: cell-based
[1] = biological target: T1, human EDG3 (S1PR3) receptor (Homo sapiens, UniProt Q99500); experiment: Aequorin assay, agonist potency, CHO-A2-S1P3 Mix cells; conditions: agonist mode, aequorin luminescence
T1 construct: expressed in transfected cells; host or cells: CHO-A2-S1P3 Mix (CHO cell pool co-expressing mitochondrial aequorin and GNA16)
Method: Agonistic activity was measured as described below.
Cell clone CHO-A21-Edg1#17 carries the transgenes human EDG1 (S1PR1) receptor (Accession number NP_001391.2), mitochondrially targeted Aequorin (active part corresponds to accession number 1SL8_A) and chimaeric Gaqi5=Gaq modified with the 5 C-terminal amino-acids replaced with those of the Gai protein (DCGLF). CHO-A2-S1P3 Mix is a cell pool ectopically expressing human EDG3 (S1PR3) receptor (Accession number NP_005217.2) mitochondrially targeted Aequorin (active part has a sequence similar to accession number AY601106.1) and GNA16 (Accession number NP_002059.3). Cell clone CHO-A21-EDG8#12 carries the transgenes human EDG8 (S1PR5) receptor (Acession number NP_110387.1), mitochondrially expressed Aequorin (active part corresponds to accession number 1SL8_A) and chimaeric Gaqi5 (Gaq modified to present the 5 last amino-acids of the Gai protein “DCGLF”; see above). Cells are grown to mid-log phase in culture medium (HAM's F12, 10% FBS, 100 IU/mL penicillin, 100 μg/mL streptomycin, 250 μg/mL Zeocin, 400 μg/mL G418). 18 hours prior to frozen cells preparation, the medium is changed to remove the antibiotics.
18 hours prior to the test, vials of frozen cells are quickly thawed in a 37° C. water bath, cells are recovered by centrifugation and resuspended in assay buffer (DMEM/HAM's F12 with HEPES, without phenol red+0.1% fatty acid-free BSA). Cells are gently agitated in suspension overnight at RT in presence of 5 μM of Coelenterazine h (Molecular Probes). On the day of the test, cells are diluted to their final working concentrations in assay buffer and agitated in suspension for 1 h at RT. Cells are then placed in the luminescence reader (Hamamatsu Functional Drug Screening System 6000, FDSS6000). During cells incubation, compounds are prepared in 100% DMSO, and subsequently diluted in assay buffer. Compounds are then dispensed in the assay plate (black, clear-bottom, 384-well plate). After binding of agonists to the human S1P receptor the intracellular calcium concentration increases and binding of calcium to the Aequorin/Coelenterazine complex leads to an oxidation reaction of coelenterazine, which results in the production of Aequorin, coelenteramide, CO2 and light (Dmax 469 nm). The luminescent response is dependent on the agonist concentration. For agonist testing, 30 μL of cell suspension are injected on 30 μL of test compound or reference agonist in the assay plate. The resulting emission of light is recorded for 90 seconds using the FDSS6000. Dose response curves with the reference compounds are performed before testing the compounds. S1P is the reference agonist and JTE-013 the reference antagonist for S1P2.
Luminescence data are integrated over the reading interval for agonist and antagonist modes. To standardize the emission of recorded light (determination of the “100% signal”) across plates and across different experiments, some of the wells contain 100 μM digitonin or a saturating concentration of ATP (20 μM). Plates also contain the reference agonist at a concentration equivalent to the EC80 obtained during the test validation and the EC100. Dose-response data from test compounds were analyzed with XLfit (IDBS) software using nonlinear regression applied to a sigmoidal dose-response model and the following equation: […]

[2] = biological target: T2, human EDG1 (S1PR1) receptor (Homo sapiens, UniProt P21453); experiment: Aequorin assay, agonist potency, CHO-A21-Edg1#17 cells; conditions: agonist mode, aequorin luminescence; read-out: S1P1 EC50
T2 construct: expressed in transfected cells; host or cells: CHO-A21-Edg1#17 (CHO clone co-expressing mitochondrial aequorin and chimaeric Gaqi5)
In short: (§1)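 CHO cells coexpressing receptor, mitochondrial aequorin and Gαqi5 (S1P3 pool: GNA16) were loaded overnight at RT with 5 μM coelenterazine h in 0.1% fatty-acid-free BSA buffer. Cells were injected onto compound, luminescence recorded 90 s and integrated, normalised to digitonin or 20 μM ATP; sigmoidal fit.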

[3] = biological target: T3, human EDG8 (S1PR5) receptor (Homo sapiens, UniProt Q9H228); experiment: Aequorin assay, agonist potency, CHO-A21-EDG8#12 cells; conditions: agonist mode, aequorin luminescence; read-out: S1P5 EC50 range #
T3 construct: carries the transgenes human EDG8 (S1PR5) receptor (Acession number NP_110387.1); expressed in transfected cells; host or cells: CHO-A21-EDG8#12 (CHO clone co-expressing mitochondrial aequorin and chimaeric Gaqi5)
In short: as §1

[4] = biological target: T4, S1P4 (Homo sapiens, UniProt O95977); experiment: Aequorin assay, agonist potency, S1P4; conditions: agonist mode, aequorin luminescence
T4 sequence (O95977 1-384): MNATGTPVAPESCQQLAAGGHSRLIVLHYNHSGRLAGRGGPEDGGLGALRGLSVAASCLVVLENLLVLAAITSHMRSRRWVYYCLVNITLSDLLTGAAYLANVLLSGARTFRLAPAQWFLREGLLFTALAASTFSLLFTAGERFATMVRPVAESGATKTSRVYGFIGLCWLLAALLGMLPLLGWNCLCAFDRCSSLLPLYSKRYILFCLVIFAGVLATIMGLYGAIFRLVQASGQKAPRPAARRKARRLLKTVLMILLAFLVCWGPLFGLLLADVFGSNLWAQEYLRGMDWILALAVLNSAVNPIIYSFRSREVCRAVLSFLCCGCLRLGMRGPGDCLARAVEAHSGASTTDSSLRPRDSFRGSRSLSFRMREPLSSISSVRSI
In short: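 Aequorin luminescence read over 90 s after adding coelenterazine h–loaded cells (5 μM, overnight, RT) to test compound in phenol red-free DMEM/F12 buffer containing 0.1% fatty acid-free BSA. Responses integrated, scaled to the 100% signal from 100 μM digitonin or 20 μM ATP, and fitted to a sigmoidal dose-response model.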

T3 sequence (Q9H228 whole entry): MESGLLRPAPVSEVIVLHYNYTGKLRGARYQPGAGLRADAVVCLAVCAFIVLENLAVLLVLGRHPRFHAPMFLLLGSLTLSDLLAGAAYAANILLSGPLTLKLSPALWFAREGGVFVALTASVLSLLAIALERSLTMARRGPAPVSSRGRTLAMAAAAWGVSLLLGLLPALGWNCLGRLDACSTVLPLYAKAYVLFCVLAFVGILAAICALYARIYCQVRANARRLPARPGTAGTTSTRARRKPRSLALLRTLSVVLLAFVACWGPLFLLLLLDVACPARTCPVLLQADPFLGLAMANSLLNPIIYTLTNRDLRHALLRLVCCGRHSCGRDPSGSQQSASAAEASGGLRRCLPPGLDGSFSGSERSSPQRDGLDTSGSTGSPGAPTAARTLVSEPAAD
T1 sequence (Q99500 whole entry): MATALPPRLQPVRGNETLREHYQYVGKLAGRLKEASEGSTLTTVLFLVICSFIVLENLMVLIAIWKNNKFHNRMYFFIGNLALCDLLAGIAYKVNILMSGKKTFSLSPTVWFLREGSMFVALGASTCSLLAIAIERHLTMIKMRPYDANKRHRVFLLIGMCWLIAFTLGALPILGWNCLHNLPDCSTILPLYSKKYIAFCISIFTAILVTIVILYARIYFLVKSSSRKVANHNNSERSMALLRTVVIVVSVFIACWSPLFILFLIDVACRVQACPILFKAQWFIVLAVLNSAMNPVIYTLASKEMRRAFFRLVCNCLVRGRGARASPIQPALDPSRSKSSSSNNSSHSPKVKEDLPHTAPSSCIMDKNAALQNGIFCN
T2 sequence (P21453 whole entry): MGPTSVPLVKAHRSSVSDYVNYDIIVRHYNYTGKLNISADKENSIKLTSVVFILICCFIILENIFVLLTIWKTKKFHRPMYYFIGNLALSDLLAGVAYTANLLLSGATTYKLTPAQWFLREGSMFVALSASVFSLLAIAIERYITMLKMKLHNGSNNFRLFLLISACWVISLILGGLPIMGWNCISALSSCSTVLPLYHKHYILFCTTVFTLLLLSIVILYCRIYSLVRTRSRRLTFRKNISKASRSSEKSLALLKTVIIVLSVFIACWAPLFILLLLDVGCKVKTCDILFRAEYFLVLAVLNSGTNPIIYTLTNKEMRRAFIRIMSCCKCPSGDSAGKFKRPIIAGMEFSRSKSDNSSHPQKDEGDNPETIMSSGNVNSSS

EC50 [1]	EC50 [2]	EC50 [3]	EC50 [4]	SMILES
> 1000 nM	> 1000 nM	1000 to 10000 nM	< 1000 nM	O=C(O)CN1CC2(Cc3ccc(OCc4ccc(Cl)cc4)cc3C2)C1 [Example 11, 2-(5′-((4-chlorobenzyl)oxy)-1′,3′-dihydrospiro[azetidine-3,2′-inden]-1-yl)acetic acid]
> 1000 nM	> 1000 nM	≤ 10 nM	< 1000 nM	O=C(O)C1(CN2CC3(Cc4ccc(-c5ccc(OCc6cccc(F)c6)cc5)cc4C3)C2)CC1 [Example 50, 1-((5′-(4-((3-fluorobenzyl)oxy)phenyl)-1′,3′-dihydrospiro[azetidine-3,2′-inden]-1-yl)methyl)cyclopropanecarboxylic acid]
> 1000 nM	> 1000 nM	≤ 10 nM	< 1000 nM	CCc1cccc(Cl)c1COc1ccc2c(c1)CC1(C2)CN(CC2(C(=O)O)CC2)C1 [Example 28, 1-((5′-((2-chloro-6-ethylbenzyl)oxy)-1′,3′-dihydrospiro[azetidine-3,2′-inden]-1-yl)methyl)cyclopropanecarboxylic acid]
> 1000 nM	> 1000 nM	10 to 100 nM	< 1000 nM	O=C(O)CN1CC2(Cc3ccc(OCc4cc(F)cc(F)c4)cc3C2)C1 [Example 14, 2-(5′-((3,5-difluorobenzyl)oxy)-1′,3′-dihydrospiro[azetidine-3,2′-inden]-1-yl)acetic acid]
> 1000 nM	> 1000 nM	10 to 100 nM	> 1000 nM	O=C(O)C1(CN2CC3(Cc4ccc(-c5ccc(OCC6CCCCC6)cc5)cc4C3)C2)CC1 [Example 51, 1-((5′-(4-(cyclohexylmethoxy)phenyl)-1′,3′-dihydrospiro[azetidine-3,2′-inden]-1-yl)methyl)cyclopropanecarboxylic acid]
> 1000 nM	> 1000 nM	≤ 10 nM	< 1000 nM	O=C(O)CN1CC2(Cc3ccc(OCCc4ccccc4C(F)(F)F)cc3C2)C1 [Example 62]
> 1000 nM	> 1000 nM	10 to 100 nM	< 1000 nM	O=C(O)C1(CN2CC3(Cc4ccc(-c5ccc(OCc6cccc(Cl)c6)cc5)cc4C3)C2)CC1 [Example 52, 1-((5′-(4-((3-chlorobenzyl)oxy)phenyl)-1′,3′-dihydrospiro[azetidine-3,2′-inden]-1-yl)methyl)cyclopropanecarboxylic acid]
> 1000 nM	> 1000 nM	≤ 10 nM	< 1000 nM	O=C(O)CN1CCC2(CC1)Cc1ccc(OCc3c(Cl)cccc3Cl)cc1C2 [Example 160, 2-(5-((2,6-dichlorobenzyl)oxy)-1,3-dihydrospiro[indene-2,4′-piperidin]-1′-yl)acetic acid]

Further lines, the molecule ahead of its results:

SMILES	EC50 [1]	EC50 [2]	EC50 [3]	EC50 [4]
O=C(O)CN1CC2(Cc3ccc(OCCc4c(Cl)cccc4Cl)cc3C2)C1 [Example 63, 2-(5′-(2,6-dichlorophenethoxy)-1′,3′-dihydrospiro[azetidine-3,2′-inden]-1-yl)acetic acid]	> 1000 nM	> 1000 nM	≤ 10 nM	< 1000 nM
CCc1cccc(Cl)c1COc1ccc2c(c1)CC1(C2)CN(CCC(=O)O)C1 [Example 7, 3-(5′-((2-chloro-6-ethylbenzyl)oxy)-1′,3′-dihydrospiro[azetidine-3,2′-inden]-1-yl)propanoic acid hydrochloride]	> 1000 nM	> 1000 nM	≤ 10 nM	< 1000 nM
O=C(O)C1(CN2CC3(Cc4ccc(OCc5ccccc5)cc4C3)C2)CC1 [Example 29, 1-((5′-(benzyloxy)-1′,3′-dihydrospiro[azetidine-3,2′-inden]-1-yl)methyl)cyclopropanecarboxylic acid]	> 1000 nM	> 1000 nM	1000 to 10000 nM	> 1000 nM
CCc1cccc(F)c1COc1ccc2c(c1)CC1(CCN(CC(=O)O)CC1)C2 [Example 159, 2-(5-((2-ethyl-6-fluorobenzyl)oxy)-1,3-dihydrospiro[indene-2,4′-piperidin]-1′-yl)acetic acid hydrochloride]	> 1000 nM	> 1000 nM	≤ 10 nM	< 1000 nM
O=C(O)CN1CC2(Cc3ccc(OCc4cc(Cl)ccc4Cl)cc3C2)C1 [Example 23, 2,2,2-trifluoroacetic acid compound with 2-(5′-((2,5-dichlorobenzyl)oxy)-1′,3′-dihydrospiro[azetidine-3,2′-inden]-1-yl)acetic acid (1:1)]	> 1000 nM	> 1000 nM	≤ 10 nM	< 1000 nM
